# Data published in ChEMBL document CHEMBL1201862, “PubChem BioAssay data set” (2004).
#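 Method: 48-hour compound exposure of cells in 96-well plates, five concentrations, linear interpolation of endpoints. GI50 is the concentration that inhibits growth by half.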 Active and inactive are the calls of the source. Cut-off read from the data, not from the text of the source: active = GI50 up to about 1.1 µM and inactive = higher.
# Key:
# Assay in all cases: NCI-60 cell line screen, 48 h
# 786-0 = system: 786-0
# A498 = system: A498
# A549 = system: A549
# ACHN = system: ACHN
# CAKI-1 = system: CAKI-1
# CCRF-CEM = system: CCRF-CEM
# COLO 205 = system: COLO 205
# DLD-1 = system: DLD-1
# DMS-114 = system: DMS-114
# DMS-273 = system: DMS-273
# EKVX = system: EKVX
# HCC 2998 = system: HCC 2998
# HCT-116 = system: HCT-116
# HCT-15 = system: HCT-15
# HL-60 = system: HL-60
# HOP-18 = system: HOP-18
# HOP-62 = system: HOP-62
# HOP-92 = system: HOP-92
# HT-29 = system: HT-29
# IGROV-1 = system: IGROV-1
# K562 = system: K562
# KM-20L2 = system: KM-20L2
# KM12 = system: KM12
# LXFL 529 = system: LXFL 529
# M14 = system: M14
# M19-MEL = system: M19-MEL
# MOLT-4 = system: MOLT-4
# Malme-3M = system: Malme-3M
# NCI-H226 = system: NCI-H226
# NCI-H23 = system: NCI-H23
# NCI-H460 = system: NCI-H460
# NCI-H522 = system: NCI-H522
# OVCAR-3 = system: OVCAR-3
# OVCAR-4 = system: OVCAR-4
# OVCAR-5 = system: OVCAR-5
# OVCAR-8 = system: OVCAR-8
# RPMI-8226 = system: RPMI-8226
# RXF 631 = system: RXF 631
# SF-268 = system: SF-268
# SF-295 = system: SF-295
# SF-539 = system: SF-539
# SK-MEL-28 = system: SK-MEL-28
# SK-MEL-5 = system: SK-MEL-5
# SK-OV-3 = system: SK-OV-3
# SN12C = system: SN12C
# SNB-19 = system: SNB-19
# SNB-75 = system: SNB-75
# SNB-78 = system: SNB-78
# SW-620 = system: SW-620
# TK-10 = system: TK-10
# U-251 = system: U-251
# UACC-257 = system: UACC-257
# UACC-62 = system: UACC-62
# UO-31 = system: UO-31
# RXF 393 = system: RXF 393
# SK-MEL-2 = system: SK-MEL-2
# SR = system: SR
structure (smiles),measurement,setting,value
Clc1ccc(OC2CCO2)cc1Cl (stereo not drawn),GI50,786-0,85.9 µM (inactive)
same,GI50,A498,38 µM (inactive)
same,GI50,A549,> 100 µM (inactive)
same,GI50,ACHN,49.7 µM (inactive)
same,GI50,CAKI-1,53.1 µM (inactive)
same,GI50,CCRF-CEM,48.3 µM (inactive)
same,GI50,COLO 205,90.8 µM (inactive)
same,GI50,DLD-1,85.9 µM (inactive)
same,GI50,DMS-114,34.4 µM (inactive)
same,GI50,DMS-273,63.1 µM (inactive)
same,GI50,EKVX,> 100 µM (inactive)
same,GI50,HCC 2998,> 100 µM (inactive)
same,GI50,HCT-116,33.8 µM (inactive)
same,GI50,HCT-15,15.7 µM
same,GI50,HL-60,35.6 µM (inactive)
same,GI50,HOP-18,> 100 µM (inactive)
same,GI50,HOP-62,78.9 µM (inactive)
same,GI50,HOP-92,46.3 µM (inactive)
same,GI50,HT-29,85.5 µM (inactive)
same,GI50,IGROV-1,> 100 µM (inactive)
same,GI50,K562,40.6 µM (inactive)
same,GI50,KM-20L2,76.4 µM (inactive)
same,GI50,KM12,76.6 µM (inactive)
same,GI50,LXFL 529,70.5 µM (inactive)
same,GI50,M14,> 100 µM (inactive)
same,GI50,M19-MEL,> 100 µM (inactive)
same,GI50,MOLT-4,35.3 µM (inactive)
same,GI50,Malme-3M,> 100 µM (inactive)
same,GI50,NCI-H226,52.8 µM (inactive)
same,GI50,NCI-H23,83.8 µM (inactive)
same,GI50,NCI-H460,47.2 µM (inactive)
same,GI50,NCI-H522,34.3 µM (inactive)
same,GI50,OVCAR-3,57.8 µM (inactive)
same,GI50,OVCAR-4,60 µM (inactive)
same,GI50,OVCAR-5,83.2 µM (inactive)
same,GI50,OVCAR-8,96.2 µM (inactive)
same,GI50,RPMI-8226,43.5 µM (inactive)
same,GI50,RXF 631,25.1 µM (inactive)
same,GI50,SF-268,78.2 µM (inactive)
same,GI50,SF-295,> 100 µM (inactive)
same,GI50,SF-539,> 100 µM (inactive)
same,GI50,SK-MEL-28,> 100 µM (inactive)
same,GI50,SK-MEL-5,62.1 µM (inactive)
same,GI50,SK-OV-3,> 100 µM (inactive)
same,GI50,SN12C,88.5 µM (inactive)
same,GI50,SNB-19,> 100 µM (inactive)
same,GI50,SNB-75,> 100 µM (inactive)
same,GI50,SNB-78,> 100 µM (inactive)
same,GI50,SW-620,17.9 µM (inactive)
same,GI50,TK-10,87.7 µM (inactive)
same,GI50,U-251,88.3 µM (inactive)
same,GI50,UACC-257,40 µM (inactive)
same,GI50,UACC-62,72.6 µM (inactive)
same,GI50,UO-31,62.4 µM (inactive)
Clc1cc(Cl)cc(C2SCc3nc4ccccc4n32)c1 (stereo not drawn),GI50,786-0,15.6 µM (inactive)
same,GI50,A549,19.6 µM (inactive)
same,GI50,ACHN,22.9 µM (inactive)
same,GI50,CAKI-1,14.9 µM (inactive)
same,GI50,CCRF-CEM,9.79 µM (inactive)
same,GI50,COLO 205,18.2 µM (inactive)
same,GI50,DLD-1,> 10 µM (inactive)
same,GI50,DMS-114,13.6 µM (inactive)
same,GI50,DMS-273,7.28 µM (inactive)
same,GI50,EKVX,22.6 µM (inactive)
same,GI50,HCC 2998,> 10 µM (inactive)
same,GI50,HCT-116,> 10 µM (inactive)
same,GI50,HL-60,4.31 µM (inactive)
same,GI50,HOP-18,28.4 µM (inactive)
same,GI50,HOP-92,14.4 µM (inactive)
same,GI50,HT-29,12 µM (inactive)
same,GI50,K562,3.82 µM (inactive)
same,GI50,KM12,13.6 µM (inactive)
same,GI50,LXFL 529,14.4 µM (inactive)
same,GI50,MOLT-4,11.7 µM (inactive)
same,GI50,Malme-3M,15.8 µM (inactive)
same,GI50,NCI-H226,19.9 µM (inactive)
same,GI50,NCI-H23,17 µM (inactive)
same,GI50,NCI-H460,14.3 µM (inactive)
same,GI50,NCI-H522,14.3 µM (inactive)
same,GI50,OVCAR-3,16.9 µM (inactive)
same,GI50,OVCAR-5,18.1 µM (inactive)
same,GI50,OVCAR-8,17 µM (inactive)
same,GI50,RPMI-8226,11.5 µM (inactive)
same,GI50,RXF 393,14.6 µM (inactive)
same,GI50,RXF 631,14.2 µM (inactive)
same,GI50,SF-268,20.4 µM (inactive)
same,GI50,SF-295,14.5 µM (inactive)
same,GI50,SF-539,11.1 µM (inactive)
same,GI50,SK-MEL-28,13.8 µM (inactive)
same,GI50,SK-MEL-2,17.6 µM (inactive)
same,GI50,SK-MEL-5,12.7 µM (inactive)
same,GI50,SK-OV-3,22.8 µM (inactive)
same,GI50,SN12C,15.2 µM (inactive)
same,GI50,SNB-19,20.7 µM (inactive)
same,GI50,SNB-75,43.4 µM (inactive)
same,GI50,SNB-78,6.03 µM (inactive)
same,GI50,SR,17.2 µM (inactive)
same,GI50,SW-620,11 µM (inactive)
same,GI50,TK-10,27.7 µM (inactive)
same,GI50,U-251,14 µM (inactive)
same,GI50,UACC-257,15.2 µM (inactive)
same,GI50,UACC-62,21.5 µM (inactive)
same,GI50,UO-31,19.3 µM (inactive)
